These are literature values, as cited in US12582625B2, “Methods for treating neuroblastoma” (priority 2015, dated 2026).

The conditions of data set [1]: in vivo; cited from earlier work.
Data set [2] has as its system tumors harboring Ki-ras mutations. As to conditions: AOM-treated rats, reduced from 90% (Singh et al., 1994); cited from earlier work.
For data set [3] the following is noted: cited from earlier work.
For data set [4] the following is noted: human, in vivo; cited from earlier work.

Take `Cc1ccc(-c2cc(C(F)(F)F)nn2-c2ccc(S(N)(=O)=O)cc2)cc1` [celecoxib, 4-[5-(4-Methylphenyl)-3-(trifluoromethyl)pyrazol-1-yl]benzenesulfonamide]: in data set [1], the “increase in rates of heart and blood vessel disease” value is recorded as 30%; the “risk of gastrointestinal side effects” value is “greater than 80%”.

For `CN1C(C(=O)Nc2ccccn2)=C(O)c2ccccc2S1(=O)=O` [piroxicam, 4 hydroxy-2-methyl-N-2-pyridyl-2H-1,2-benzothiazine-3-carboxamide 1,1-dioxide], the “tumors harboring Ki-ras mutations” value in data set [2] is recorded as 25%.

With `CC1=C(CC(=O)O)c2cc(F)ccc2/C1=C\c1ccc([S+](C)[O-])cc1` (stereo not shown) [sulindac, (Z)-5-fluoro-2-methyl-1-((4-(methylsulfinyl)phenyl)methylene)-1H-chemical indene-3-acetic acid], the drug absorbed entry in data set [3] (after oral administration) is “about 90%”. Moreover, in data set [3] (fasting patients), the “time to peak plasma levels” value is reported as “about 2 hours”. Also, in data set [4], the “patients with mild gastrointestinal effects” value is reported as ~20%; the “patients with skin rash and pruritus” value was 5%.
